Data reported in patent US20060069132A1, “Azolecarboxamide herbicides” (priority 2004, published 2006).
Like-named read-outs stand apart in the source and are kept apart here.

Assays:
[1] = tested on: barnyardgrass; assay: Test B pre-/postemergence herbicide test; type: in vivo, Echinochloa crus-galli; details: for pest or weed control at 500 g/ha: 500 g ai/ha
How it was run: (§1)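 Response was scored visually 13 to 15 days after treatment against untreated greenhouse controls, 0 meaning no effect and 100 complete control. Formulations (solvent mixture plus surfactant) went onto soil after planting, onto foliage of 1- to 4-leaf plants, and onto 2-leaf plants in a flooded paddy set including rice and barnyardgrass.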

[2] = tested on: Surinam grass; assay: Test B pre-/postemergence herbicide test; type: in vivo, Urochloa decumbens; details: for pest or weed control at 500 g/ha: 500 g ai/ha
How it was run: (§2)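 Pre: seeds sown, then sprayed. Post: 1–4-leaf plants (2–18 cm) sprayed at the same time. Paddy: flooded, treated at 2-leaf stage. Formulation: non-phytotoxic solvent with surfactant. Greenhouse 13–15 days; visual 0–100 score relative to controls.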

[3] = tested on: cocklebur; assay: Test B pre-/postemergence herbicide test; type: in vivo, Xanthium strumarium; details: for pest or weed control at 500 g/ha: 500 g ai/ha
How it was run: as §1

[4] = tested on: corn; assay: Test B pre-/postemergence herbicide test; type: in vivo, Zea mays
How it was run: as §2

[5] = tested on: large crabgrass; assay: Test B pre-/postemergence herbicide test; type: in vivo, Digitaria sanguinalis; details: for pest or weed control at 500 g/ha: 500 g ai/ha
How it was run: as §2

[6] = tested on: giant foxtail; assay: Test B pre-/postemergence herbicide test; type: in vivo, Setaria faberi; details: for pest or weed control at 500 g/ha: 500 g ai/ha
How it was run: as §2

[7] = tested on: lambsquarters; assay: Test B pre-/postemergence herbicide test; type: in vivo, Chenopodium album; details: for pest or weed control at 500 g/ha: 500 g ai/ha
How it was run: as §2

[8] = tested on: morningglory; assay: Test B pre-/postemergence herbicide test; type: in vivo, Ipomoea coccinea; details: for pest or weed control at 500 g/ha: 500 g ai/ha
How it was run: as §1

[9] = tested on: pigweed; assay: Test B pre-/postemergence herbicide test; type: in vivo, Amaranthus retroflexus; details: for pest or weed control at 500 g/ha: 500 g ai/ha
How it was run: as §2

[10] = tested on: blackgrass; assay: Test B postemergence herbicide test; type: in vivo, Alopecurus myosuroides; details: Alopecurus myosuroides, post-emergence, 336 h, read-out: Blackgrass plant response rating
How it was run: (§3)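 Visual control ratings, 0–100 versus untreated controls, taken after 13 to 15 days in the greenhouse. Blackgrass received a postemergence spray at the 1- to 4-leaf stage (2–18 cm); ducksalad, umbrella sedge and barnyardgrass were flooded-paddy treated at 2 leaves.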

[11] = tested on: wheat; assay: Test B postemergence herbicide test; type: in vivo, Triticum aestivum; details: Triticum aestivum, post-emergence, 336 h, read-out: Wheat plant response rating
How it was run: (§4)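 Formulated test chemicals went onto postemergence plants measuring 2 to 18 cm, at one to four leaves. For the paddy assay, species had reached two leaves. Scoring took place 13–15 days later by eye, relative to untreated plants, using 0 for no effect up to 100 for full control.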

[12] = tested on: wild oat; assay: Test B postemergence herbicide test; type: in vivo, Avena fatua; details: Avena fatua, post-emergence, 336 h, read-out: Oat, Wild plant response rating
How it was run: as §4

[13] = tested on: rice; assay: Test B flooded paddy test; type: in vivo, Oryza sativa; details: Oryza sativa, 336 h, 1000 g ai/ha, scale 0 to 100 (0 no effect, 100 complete control), read-out: Rice plant response rating
How it was run: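 Plants grow to 1- to 4-leaf stage (2–18 cm) for postemergence spraying, or to 2-leaf stage for the paddy test. Formulated compound is applied. Greenhouse holding lasts 13–15 days. Response is scored visually relative to controls, 0 no effect to 100 complete control; a dash means no result.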

[14] = tested on: small flower umbrella sedge; assay: Test B flooded paddy test; type: in vivo, Cyperus difformis; details: Cyperus difformis, 336 h, 1000 g ai/ha, scale 0 to 100 (0 no effect, 100 complete control), read-out: Sedge, Umbrella plant response rating
How it was run: as §3

[15] = tested on: ducksalad; assay: Test B flooded paddy test; type: in vivo, Heteranthera limosa; details: Heteranthera limosa, 336 h, 1000 g ai/ha, scale 0 to 100 (0 no effect, 100 complete control), read-out: Ducksalad plant response rating
How it was run: as §3

[16] = tested on: barnyardgrass; assay: Test B flooded paddy test; type: in vivo, Echinochloa crus-galli; details: Echinochloa crus-galli, 336 h, 1000 g ai/ha, scale 0 to 100 (0 no effect, 100 complete control), read-out: Barnyardgrass plant response rating
How it was run: as §3

[17] = 125 g ai/ha, 0 is no effect, 100 is complete control, preemergence
[18] = 125 g ai/ha, visual rating, scale 0 (no effect) to 100 (complete control)
[19] = postemergence, 500 g ai/ha, scale 0 to 100, 0 is no effect, 100 is complete control

CCn1nc2c(c1C(=O)Nc1cc(C(=O)N(C)C)ccc1F)CCC2(C)C [Compound 352, N-[5-[(dimethylamino)carbonyl]-2-fluorophenyl]-2-ethyl-2,4,5,6-tetrahydro-6,6-dimethyl-3-cyclopentapyrazolecarboxamide]
Plant response rating (0 to 100 scale), Barnyardgrass [1, 17]: 70 | pest or weed control at 125 g/ha ([1]; Echinochloa crus-galli, post-emergence, 125 g ai/ha, visual rating, scale 0 (no effect) to 100 (complete control), read-out: Barnyardgrass plant response rating): 0% | pest or weed control at 500 g/ha ([1]; Echinochloa crus-galli, post-emergence, postemergence, scale 0 to 100, 0 is no effect, 100 is complete control, read-out: Barnyardgrass plant response rating): 10% | pest or weed control at 500 g/ha ([1]; Echinochloa crus-galli, pre-emergence, visual rating, 0 = no effect, 100 = complete control, read-out: Plant response rating, Barnyardgrass): 90% | Plant response rating (0 to 100 scale), Surinam Grass [2, 17]: 90 | pest or weed control at 125 g/ha ([2]; Urochloa decumbens, post-emergence, 125 g ai/ha, visual rating, scale 0 (no effect) to 100 (complete control), read-out: Surinam Grass plant response rating): 10% | pest or weed control at 500 g/ha ([2]; Urochloa decumbens, post-emergence, postemergence, scale 0 to 100, 0 is no effect, 100 is complete control, read-out: Surinam Grass plant response rating): 40% | pest or weed control at 500 g/ha ([2]; Urochloa decumbens, pre-emergence, visual rating, 0 = no effect, 100 = complete control, read-out: Plant response rating, Surinam Grass): 100% | Plant response rating (0 to 100 scale), Cocklebur [3, 17]: 0 | pest or weed control at 125 g/ha ([3]; Xanthium strumarium, post-emergence, 125 g ai/ha, visual rating, scale 0 (no effect) to 100 (complete control), read-out: Cocklebur plant response rating): 0% | pest or weed control at 500 g/ha ([3]; Xanthium strumarium, post-emergence, postemergence, scale 0 to 100, 0 is no effect, 100 is complete control, read-out: Cocklebur plant response rating): 10% | pest or weed control at 500 g/ha ([3]; Xanthium strumarium, pre-emergence, visual rating, 0 = no effect, 100 = complete control, read-out: Plant response rating, Cocklebur): 0% | Plant response rating (0 to 100 scale), Corn [4, 17]: 60 | plant injury at 125 g/ha ([4]; Zea mays, post-emergence, 125 g ai/ha, visual rating, scale 0 (no effect) to 100 (complete control), read-out: Corn plant response rating): 0% | plant injury at 500 g/ha ([4]; Zea mays, post-emergence, postemergence, 500 g ai/ha, scale 0 to 100, 0 is no effect, 100 is complete control, read-out: Corn plant response rating): 10% | Corn plant response rating (crop injury, 0 = no effect, 100 = complete kill) at 500 g/ha ([4]; Zea mays, pre-emergence, 500 g ai/ha, visual rating, 0 = no effect, 100 = complete control): 80% | Plant response rating (0 to 100 scale), Crabgrass, Large [5, 17]: 90 | pest or weed control at 125 g/ha ([5]; Digitaria sanguinalis, post-emergence, 125 g ai/ha, visual rating, scale 0 (no effect) to 100 (complete control), read-out: Crabgrass, Large plant response rating): 20% | pest or weed control at 500 g/ha ([5]; Digitaria sanguinalis, post-emergence, postemergence, scale 0 to 100, 0 is no effect, 100 is complete control, read-out: Crabgrass, Large plant response rating): 20% | pest or weed control at 500 g/ha ([5]; Digitaria sanguinalis, pre-emergence, visual rating, 0 = no effect, 100 = complete control, read-out: Plant response rating, Crabgrass, Large): 100% | Plant response rating (0 to 100 scale), Foxtail, Giant [6, 17]: 70 | pest or weed control at 125 g/ha ([6]; Setaria faberi, post-emergence, 336 h, 125 g ai/ha, visual rating, scale 0 (no effect) to 100 (complete control), read-out: Foxtail, Giant plant response rating): 10% | pest or weed control at 500 g/ha ([6]; Setaria faberi, post-emergence, 336 h, postemergence, scale 0 to 100, 0 is no effect, 100 is complete control, read-out: Foxtail, Giant plant response rating): 30% | pest or weed control at 500 g/ha ([6]; Setaria faberi, pre-emergence, 336 h, visual rating, 0 = no effect, 100 = complete control, read-out: Plant response rating, Foxtail, Giant): 100% | Plant response rating (0 to 100 scale), Lambsquarters [7, 17]: 90 | pest or weed control at 125 g/ha ([7]; Chenopodium album, post-emergence, 336 h, 125 g ai/ha, visual rating, scale 0 (no effect) to 100 (complete control), read-out: Lambsquarters plant response rating): 10% | pest or weed control at 500 g/ha ([7]; Chenopodium album, post-emergence, 336 h, postemergence, scale 0 to 100, 0 is no effect, 100 is complete control, read-out: Lambsquarters plant response rating): 60% | pest or weed control at 500 g/ha ([7]; Chenopodium album, pre-emergence, 336 h, visual rating, 0 = no effect, 100 = complete control, read-out: Plant response rating, Lambsquarters): 100% | Plant response rating (0 to 100 scale), Morningglory [8, 17]: 0 | pest or weed control at 125 g/ha ([8]; Ipomoea, post-emergence, 336 h, 125 g ai/ha, visual rating, scale 0 (no effect) to 100 (complete control), read-out: Morningglory plant response rating): 10% | pest or weed control at 500 g/ha ([8]; Ipomoea, post-emergence, 336 h, postemergence, scale 0 to 100, 0 is no effect, 100 is complete control, read-out: Morningglory plant response rating): 60% | pest or weed control at 500 g/ha ([8]; Ipomoea, pre-emergence, 336 h, visual rating, 0 = no effect, 100 = complete control, read-out: Plant response rating, Morningglory): 0% | Plant response rating (0 to 100 scale), Pigweed [9, 17]: 50 | pest or weed control at 125 g/ha ([9]; Amaranthus retroflexus, post-emergence, 336 h, 125 g ai/ha, visual rating, scale 0 (no effect) to 100 (complete control), read-out: Pigweed plant response rating): 10% | pest or weed control at 500 g/ha ([9]; Amaranthus retroflexus, post-emergence, 336 h, postemergence, scale 0 to 100, 0 is no effect, 100 is complete control, read-out: Pigweed plant response rating): 60% | pest or weed control at 500 g/ha ([9]; Amaranthus retroflexus, pre-emergence, 336 h, visual rating, 0 = no effect, 100 = complete control, read-out: Plant response rating, Pigweed): 70% | pest or weed control at 125 g/ha [10, 18]: 10% | pest or weed control at 500 g/ha [10, 19]: 30% | plant injury at 125 g/ha [11, 18]: 10% | plant injury at 500 g/ha [11, 19]: 20% | pest or weed control at 125 g/ha [12, 18]: 0% | pest or weed control at 500 g/ha [12, 19]: 20% | plant injury at 1000 g/ha [13]: 70% | pest or weed control at 1000 g/ha [14]: 80% | pest or weed control at 1000 g/ha [15]: 90% | pest or weed control at 1000 g/ha [16]: 90%
